Reference: PubChem BioAssay AID1918934 (Molecular Pharmacology Branch, DTP, NCI, 2023)

Tested on: 292921-168-R-J2-PDC complex spheroid viability
Assay: Anticancer human tumor 292921-168-R-J2-PDC patient-derived pancreatic carcinoma cell line growth inhibition
Conditions: for IC50: curve of first compound; for viability, T/C: stronger effect = lower value
Source text: Multicellular complex tumor spheroid response to LSD1 Inhibitor Iadademstat in combination with a variety of drugs and investigational agents in selected tumor cell lines
The current study was undertaken to assess response to LSD1 inhibitors in combination with standard-of-care drugs and investigational agents in solid tumor complex spheroid models as well as in the K-562 leukemia. Complex spheroids include a stromal component modeled by human endothelial cells (HUVEC) and fibroblasts modeled by human mesenchymal stem cells (MSCs). The concentration ranges selected for each drug and investigational agent were based upon clinically achievable concentrations if the clinical Cmax of the agent was known.
Compounds. The drugs and investigational agents used in this study are listed on Table 1. All of the agents used, including staurosporine (NSC755774) and gemcitabine (NSC613327), were obtained from the Developmental Therapeutics Program, NCI. FDA-approved anticancer drugs are available from the NCI at http://dtp.nci.nih.gov/branches/dscb/oncology_drugset_explanation.html. Drugs and investigational agents were >95% pure by proton nuclear magnetic resonance (NMR) and liquid chromatography/mass spectrometry (LC/MS). Stock solutions were prepared at 400x in DMSO, stored at -70 degrees C, and diluted in fresh medium prior to their use. The final concentration of DMSO in cell culture wells never exceeded 0.25% (v/v). The FDA-approved anticancer drug set is available from the Developmental Therapeutics Program at https://dtp.cancer.gov/organization/dscb/obtaining/available_plates.htm. All drugs and investigational agents were tested over a range starting from a high concentration at or near the clinical Cmax and decreasing in half-log increments. If the clinical Cmax for an agent had not been determined, the highest concentration tested was 10 microM.
Cell Lines. The patient-derived cancer cell (PDC) lines: 292921-168-R-J2-PDC, K24384-001-R-PDC, and 521955-158-R2-J5-PDC pancreatic carcinomas, 556581-035-R-J1 ovarian carcinoma, 324938-238-R-J1-PDC, 855422-203-R-J1-PDC and 883617-216-R-J1-PDC urothelial bladder carcinomas, 743489-274-T-PDC renal cell carcinoma, 138582-R-J1 Merkel cell tumor, K60290-347-R-J1 and K57222-313-R-J1-PDC glioblastomas, 653999-131-R-J2-PDC, LG0703-F948-PDC, and 349418-098-R-PDC non-small cell lung carcinomas, 885512-296-R-J2-PDC, 171881-019-R-J1-PDC breast carcinomas and 186277-243-T-J2-PDC and 233499-124-R-J2-PDC colon carcinomas were obtained from the NCI Patient-Derived Models Repository (PDMR, https://pdmr.cancer.gov). The established cell lines NCI/ADR-RES (RRID:CVCL_14520 and OVCAR-5 (RRID:CVCL_1628) ovarian carcinomas, 786-O (RRID:CVCL_1051) and A498 (RRID:CVCL_A498) renal cell carcinoma, NCI-H211 (ATCC, cat. CRL-5824; RRID:CVCL_1529), NCI-H196 (ATCC, cat. CRL-5823, RRID:CVCL_1509), SW 1271 (ATCC, cat. CRL-2177, RRID:CVCL_1716) and NCI-H1876 (ATCC, cat. CRL-5902, RRID:CVCL_1503) small cell lung carcinomas, MDA-MB-231 (RRID:CVCL_0062) and MDA-MB-468 (RRID:CVCL_0419)breast carcinomas (10-12). Pooled donor human umbilical vein endothelial cells (HUVEC, Lonza, cat. CC-2519) and human mesenchymal stem cells (hMSC, Lonza, cat. PT-2501) were purchased from Lonza (Walkersville, MD).
Cell Culture. All cells were maintained in an incubator at 37 degrees C and 5% CO2 with 95% humidity. The PDC lines were cultured according to standard operating procedures established by the NCI PDMR (https://pdmr.cancer.gov). Briefly all PDCs were thawed and cultured in Matrigel-coated flasks prepared with a working solution of 1X Ham's F-12 nutrient mix, without supplementation (Invitrogen, Waltham, MA, cat. 11765054), 100 U/mL penicillin-streptomycin (Invitrogen, cat. 15140122), and 2.5% Matrigel (Corning Inc., Corning, NY, cat. 354248) for the first three passages. […]

[1] = second compound 0.1 µM, first compound 0.000949 µM
[2] = second compound 0.1 µM, first compound 0.003 µM
[3] = second compound 0.1 µM, first compound 0.00949 µM
[4] = second compound 0.1 µM, first compound 0.03 µM
[5] = second compound 0.1 µM, first compound 0.0949 µM
[6] = second compound 0.1 µM, first compound 0.3 µM
[7] = second compound 0.316 µM, first compound 0.000949 µM
[8] = second compound 0.316 µM, first compound 0.003 µM
[9] = second compound 0.316 µM, first compound 0.00949 µM
[10] = second compound 0.316 µM, first compound 0.03 µM
[11] = second compound 0.316 µM, first compound 0.0949 µM
[12] = second compound 0.316 µM, first compound 0.3 µM
[13] = second compound 1 µM, first compound 0.000949 µM
[14] = second compound 1 µM, first compound 0.003 µM
[15] = second compound 1 µM, first compound 0.00949 µM
[16] = second compound 1 µM, first compound 0.03 µM
[17] = second compound 1 µM, first compound 0.0949 µM
[18] = second compound 1 µM, first compound 0.3 µM
[19] = second compound 3.16 µM, first compound 0.000949 µM
[20] = second compound 3.16 µM, first compound 0.003 µM
[21] = second compound 3.16 µM, first compound 0.00949 µM
[22] = second compound 3.16 µM, first compound 0.03 µM
[23] = second compound 3.16 µM, first compound 0.0949 µM
[24] = second compound 3.16 µM, first compound 0.3 µM
[25] = second compound 10 µM, first compound 0.000949 µM
[26] = second compound 10 µM, first compound 0.003 µM
[27] = second compound 10 µM, first compound 0.00949 µM
[28] = second compound 10 µM, first compound 0.03 µM
[29] = second compound 10 µM, first compound 0.0949 µM
[30] = second compound 10 µM, first compound 0.3 µM
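Further: seven day compound exposure before luminescent viability read.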
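Wherever viability, T/C is given: 100% = DMSO vehicle control wells.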

Nc1ccn(C2OC(CO)C(O)C2(F)F)c(=O)n1 (stereo not given) + NC1CCC(NC2CC2c2ccccc2)CC1
IC50 (second compound 0.1 µM): < 0.949 nM | IC50 (second compound 0.316 µM): < 0.949 nM | IC50 (second compound 1 µM): < 0.949 nM | IC50 (second compound 3.16 µM): < 0.949 nM | IC50 (second compound 10 µM): < 0.949 nM | viability, T/C [1]: 27.8% | viability, T/C [2]: 9.83% | viability, T/C [3]: 8.07% | viability, T/C [4]: 6.88% | viability, T/C [5]: 7.25% | viability, T/C [6]: 6.85% | viability, T/C [7]: 28.2% | viability, T/C [8]: 11.6% | viability, T/C [9]: 6.99% | viability, T/C [10]: 6.4% | viability, T/C [11]: 8.06% | viability, T/C [12]: 7.6% | viability, T/C [13]: 21.8% | viability, T/C [14]: 10.7% | viability, T/C [15]: 8.29% | viability, T/C [16]: 7.78% | viability, T/C [17]: 8.71% | viability, T/C [18]: 7.52% | viability, T/C [19]: 22.2% | viability, T/C [20]: 10.4% | viability, T/C [21]: 8.35% | viability, T/C [22]: 7.52% | viability, T/C [23]: 8.12% | viability, T/C [24]: 8.1% | viability, T/C [25]: 23.4% | viability, T/C [26]: 10.2% | viability, T/C [27]: 9% | viability, T/C [28]: 9.62% | viability, T/C [29]: 8.3% | viability, T/C [30]: 9.08%

Nc1ncn(C2CC(O)C(CO)S2)c(=O)n1 (stereo not given) + NC1CCC(NC2CC2c2ccccc2)CC1
IC50 (second compound 0.1 µM): 43.8 nM | IC50 (second compound 0.316 µM): 40 nM | IC50 (second compound 1 µM): 37.2 nM | IC50 (second compound 3.16 µM): 34.6 nM | IC50 (second compound 10 µM): 30.7 nM | viability, T/C [1]: 68.9% | viability, T/C [2]: 62% | viability, T/C [3]: 63.2% | viability, T/C [4]: 57.1% | viability, T/C [5]: 36.8% | viability, T/C [6]: 10.9% | viability, T/C [7]: 66.8% | viability, T/C [8]: 64.3% | viability, T/C [9]: 59.1% | viability, T/C [10]: 57.2% | viability, T/C [11]: 33.2% | viability, T/C [12]: 11.2% | viability, T/C [13]: 52.2% | viability, T/C [14]: 62.7% | viability, T/C [15]: 55.2% | viability, T/C [16]: 53.9% | viability, T/C [17]: 33.6% | viability, T/C [18]: 10.3% | viability, T/C [19]: 55.1% | viability, T/C [20]: 61.9% | viability, T/C [21]: 58.6% | viability, T/C [22]: 52.9% | viability, T/C [23]: 28% | viability, T/C [24]: 11% | viability, T/C [25]: 56.3% | viability, T/C [26]: 61.2% | viability, T/C [27]: 59.6% | viability, T/C [28]: 49.6% | viability, T/C [29]: 28.2% | viability, T/C [30]: 11.5%
